Patent publication US20230133243A1, “CONDITIONING REGIMENS FOR IN VIVO GENE THERAPY” (Fred Hutchinson Cancer Center, priority 2020, published 2023)

What was measured:
[1] = Tolerability, physical health, hematology and blood chemistry in the NHP in vivo HSC gene therapy study; set-up: species or system rhesus macaques; details: NHP #2, given through a gastric catheter over 5 days; day 3 after HDAd injection
Excerpt: NHP #1 received a donor vector containing two payload modules: i) a transposon module for random integration into host cell genomes of a human γ-globin gene operably linked with a mini-β-globin LCR, together with an MGMT^P140K selection marker operably linked with an EF1α promoter, and ii) a CRISPR/Cas9 module for CRISPR/Cas9-mediated reactivation of endogenous rhesus γ-globin expression (FIG. 8B). This combination donor vector was co-injected with a support vector that expresses an activity-enhanced Sleeping Beauty transposase (SB100x) (HDAd-SB), activity of which mediates γ-globin gene addition by integration of the transposon into host cell genomes and triggers the destruction of the CRISPR/Cas9 module thus restricting the duration of the CRISPR/Cas9 system's expression and activity (FIG. 8B). […] The vector injected into NHP #3 was similar to the NHP #1 vector but encoded rhesus γ-globin instead of human γ-globin to minimize immune responses against transgene products in the NHP (FIG. 8D).
None of the three animals had detectable anti-vector antibodies at the time of enrollment. Unexpectedly, NHP #1 acquired antibodies during quarantine (titer 1:680). NHP #1 and #3 were monitored for 6 months. […] Despite this, a set of relevant data could be collected from this animal. […]

human MGMT^P140K = assay: Anti-human MGMT^P140K immune responses under adaptive immunosuppression; type: in vivo, rhesus macaques; details: fully immunocompetent animals
Excerpt: Serum antibody (IgG and IgM) titers against recombinant human MGMT protein in NHP #3 (FIG. 18A) and NHP #1 (FIG. 18B).
To suppress adaptive immune responses, NHP #1 received daily tacrolimus/sirolimus/MMF. […] For NHP #3, it was therefore decided to administer only tacrolimus (SC) as this had been sufficient in myelo-ablated/-conditioned rhesus macaques.

IL-6 = assay: Rhesus serum cytokine levels by cytometric bead array after IV HDAd5/35++ (IL-6); type: in vivo, rhesus macaques; details: NHPs; measured by IL-6 and/or TNF levels
Excerpt: FIGS. 12A-12E. […] (FIGS. 12A-12C) Serum IL-6. (FIGS. 12D, 12E) Serum TNFα.
FIG. 29. […] Serum IL-6 (pg/mL) levels are shown for NHP #4. […] Arrows indicate administration of adenoviral vector.
FIG. 31. […] Serum IL-6 (pg/mL) levels are shown for NHP #5. […] Arrows indicate administration of adenoviral vector.
Serum cytokines returned back to baseline by 24 hrs.

Compound	outcome of overdose [1]	control of anti-human MGMT^P140K antibodies (and T-cell responses) (human MGMT^P140K)	innate immune response to HDAd5/35++ (IL-6)
C=CC[C@@H]1/C=C(\C)C[C@H](C)C[C@H](OC)[C@H]2O[C@@](O)(C(=O)C(=O)N3CCCC[C@H]3C(=O)O[C@H](/C(C)=C/[C@@H]3CC[C@@H](O)[C@H](OC)C3)[C@H](C)[C@@H](O)CC1=O)[C@H](C)C[C@@H]2OC [tacrolimus]	had to be euthanized	did not prevent	–
anakinra: engineered human IL-1 receptor antagonist (IL-1Ra), recombinant non-glycosylated protein, SEQ ID NO: 1	–	–	potent agent for suppressing in vivo immune responses
